One compound from patent US10945972B2, “Particulate materials” (Nektar Therapeutics, priority 2002, dated 2021) can be followed below.

Molecules are shown by their SMILES.

Holding throughout (type): physicochemical
Data set [1] in a line: Inverse gas chromatography of TBS (Example 8). As for the experimental part: An empty GC column was uniformly packed with the powder of interest (TBS). Pre-silanized commercially available straight glass columns of 30 cm length with a 3 mm internal diameter were used in this investigation. The silanation procedure was necessary to minimize active sites on the inner glass surfaces, which strongly interact with polar probes. Each column was packed at the detector end with a small amount of silanised glass wool, was clipped to a stand and powder was added through a glass funnel with the aid of a mechanical column packer (tapping) to improve powder flow and remove any air gaps. […] A. Hewlett Packard 6890 Series Gas Chromatograph (GC) (Hewlett Packard, Penna, USA) oven equipped with an autosampler was used to control the solvent temperature. The 6890 GC data acquisition system was used to record data from a thermal conductivity detector (TCD) and flame ionisation detector (FID) with the instrument modified for IGC by Surface Measurement Systems (SMS), Manchester, UK. The combination of detectors allowed sensitive analysis of both organic vapour elution and water (although RH was not raised above 0% for these experiments).
The whole system was fully automated by control software (SMS iGC Controller v1.3) and the data analyzed using SMS iGC Analysis macros. Prior to analysis, each column was equilibrated at 30° C. and 0% relative humidity (RH) for 5 hours by passing dry helium gas through the column. Helium gas was also used as the carrier gas. Hydrogen and compressed air flow rates were set at 40 and 450 ml min respectively for the FID. The chromatograph injection port was maintained at 80° C., TCD detector at 150° C. and the FID detector at 150° C. Column temperature was set at 30° C. throughout analysis. Data were obtained by flowing helium gas at 10 ml min^−1 through the sinalized glass column packed with a known weight of powdered material and injecting small amounts (concentration P/Po=0.05) of a range of probe vapors with different polarities. The retention times of the probes were measured using SMS iGC Controller v1.3 software, at infinite dilution or near zero surface coverage (equivalent to 10^−4-10^−7 μl of liquid) where retention is independent of the quantity of probe injected. For each sample, two columns were prepared and analysed by employing a method based on standard settings, which allows the precise control and measurement of experimental variables. This is essential in producing meaningful results. The data were used to calculate the dispersive and non-dispersive forces acting at TBS particle surfaces using the method developed by Schultz and co-workers (J. Schultz, L. Lavielle and C. Martin. The role of the interface in carbon fibre-epoxy composites, J. Adhesion, 23, 45-60 (1987)).

Data set [2] is described as follows: Laser diffraction HELOS/RODOS of TBS (Example 8). Particulars: 2 bar, listed as TBS 2. As for the experimental part: A small amount of TBS powder was analysed using a laser diffraction RODOS/VIBRI dispersing system (HELOS/RODOS, Sympatec GmbH, Clausthal-Zellerfeld, Germany). The instrument consisted of a laser sensor HELOS and a RODOS dry-powder air-dispersion system (Sympatec GmbH, Clausthal-Zellerfeld, Germany). Different measurement ranges of the laser sensor were provided by interchangeable objectives R1 (0.1-35 μm) and R2 (0.25-87.5 μm). The rate of powder dispersion was controlled by adjusting the pressure of the compressed air flow. A pressure of 2 bar was sufficient to achieve deagglomeration of primary particles without attrition.

Data set [3] in a line: AEROFLOW powder avalanching (Example 8). As to conditions: listed as TBS 2. The protocol: An AEROFLOW™ powder avalanching apparatus (Amherst Process Instruments, API, Amherst, USA) was employed to analyze the dynamic avalanching behaviour of micronized and SC processed TBS samples. The AEROFLOW™ apparatus consists of a transparent rotating drum with a port at the front. A white light source is positioned in front of the drum and a masked array of photocells is behind the drum. To measure avalanching, 50 ml of the drug powder was added to the drum, which is about 15% of its total volume to ensure good powder mixing during the operation. As the drum rotates, the powder bed is carried upwards until an unstable state is reached and an avalanche occurs.
The time between successive avalanches was recorded by the projection of the light beam through the drum onto the photocell array. The photocells generated a voltage dependent on the amount of light falling on the cells and the area of unmasked photocells shielded from the light source by the powder. The voltage output (transmitted light intensity) was recorded by a computer, which translates the output as powder movement using a technique disclosed in B. H. Kaye. Characterizing the flowability of a powder using the concepts of fractal geometry and chaos theory, Part. Part. Charact. 14: 53-66 (1997). Each TBS sample was tested in duplicate and mean avalanche time and irregularity (scatter) of avalanches were recorded.

The nature of data set [4]: AEROSIZER time-of-flight of TBS (Example 8). As to conditions: listed as TBS 2. As for the experimental part:
The TBS samples were also analysed using an AEROSIZER™ (Amherst Process Instruments, Amherst, Mass., USA), provided with pulse jet disperser, the AERODISPERSER™, to introduce the powders to the instrument. The measurement range of the AEROSIZER™ is nominally from 0.2 to 200 μm of aerodynamic diameter with the standard 750 μm diameter tapered nozzle. The micronized and SEDS™ TBS samples were analyzed for 300 seconds in triplicate using normal deagglomeration conditions, feed rate (5000 particles per second) and medium shear force (0.5 psi).

A short description of data set [5]: Dynamic vapor sorption (Example 8). Particulars: 25° C. The protocol:
The moisture sorption isotherm of each powder at 25° C. was measured using a dynamic vapour sorption (DVS) instrument made by Surface Measurement Systems, UK. This instrument gravimetrically measures uptake and loss of water vapor on a substrate by means of a recording microbalance with a resolution of ±0.1 μg. In the first step of the experimental run, the sample was dried at 25° C. and 0% relative humidity (RH) for at least 600 minutes to bring the sample to near zero wt % H2O. Then, the instrument was programmed to increase the RH in steps of 5% RH from 0% to 90% RH and decrease the RH in steps of 10% RH from 90% to 0% RH. A criterion of dm/dt=0.005%/min was chosen for the system to hold at each RH step before proceeding to the next RH step. Sample masses between 30 and 100 mg were used in this study. The change in mass (%) is expressed in terms of g H2O per 100 g of dry substance.

For `CC(C)(C)NCC(O)c1cc(O)cc(O)c1` (stereo not shown) [TSB SEDS, terbutaline sulphate], the “γs^D mJm^−2” value in data set [1] (30° C., 0% RH, listed as TBS 2) amounted to 55.05 mJm^−2. Further, the KA in data set [1] (listed as TBS 2) came to 0.778. The “−ΔGA^SP (kJ/mol) Acetone” value in data set [1] (probe acetone, listed as TBS 2) is 10.42 kJ/mol. Besides, the “−ΔGA^SP (kJ/mol) Dioxane” value in data set [1] (probe dioxane) is 14.20 kJ/mol. Besides, in data set [1] (probe ethyl acetate, listed as TBS 2), the “−ΔGA^SP (kJ/mol) Ethyl acetate” value was found to be 13.76 kJ/mol. For the same compound, the “−ΔGA^SP (kJ/mol) Toluene” value in data set [1] (probe toluene, listed as TBS 2) is 2.85 kJ/mol. Besides, the “Sympatec D4, 3 (μm)” value in data set [2] is recorded as 3.43 μm. Further, in data set [3] (100 sec/rev), the “Irregularity of flow” value was 1.17 s and the “Mean time to avalanche” value is 3.30 s. In data set [3] (145 sec/rev), the “Irregularity of flow” value was determined as 2.12 s and the “Mean time to avalanche” value worked out at 4.91 s. The “Aerosizer D4, 3 (μm)” value in data set [4] came out at 3.44 μm. In data set [5], the “moisture uptake compared with micronised sample” value is “slightly higher moisture uptake than the micronised sample”.
